Assay results reported in publication PMC4080980, “The pharmacokinetics of anthocyanins and their metabolites in humans” (British Journal of Pharmacology, 2014).
Marks after values point to notes of the source that are not given here.

How the values were obtained:
[1] = Faecal recovery after 500 mg oral bolus of 13C5-C3G; format: in vivo, humans; details: faeces, 500 mg oral 13C5-C3G; for Recovery 6–24 h / Recovery 24–48 h: mean ± SEM
Protocol: The study was conducted at the Clinical Research and Trials Unit at the University of East Anglia according to the principles expressed in the Declaration of Helsinki and was approved by the Cambridgeshire 3 Research Ethics Committee (REC ref: 10/H0306/42) and registered at clinicaltrials.gov as NCT01106729.
Sample extracts (5 μL) were injected onto a Kinetex PFP column (Phenomonex) and separated using an Agilent 1200 series HPLC with a QTrap 4000 linear ion trap mass spectrometer (ABSciex, Warrington, UK). […] Metabolite identification was performed by multiple reaction monitoring (MRM) optimized for the detection of pure standards with m/z of the parent and daughter fragments adjusted to +2,+3,+5 amu to allow identification of the ^13C-labelled metabolites derived from the B-ring, A-ring or the parent structure respectively. […] The HPLC-ESI-MS/MS method was validated for linearity and precision across all metabolites.
Pharmacokinetic parameters were established for each individual analyte and presented as mean ± SEM. Urine samples collected during the first 6 h post-bolus were grouped together to the nearest hour time point (i.e. samples were not pooled but individual concentrations were averaged post-quantification) for graphical representation and to calculate total cumulative recovery. The concentration of metabolites was converted to amount recovered from urine by accounting for the molecular weight of the individual ^13C-labelled metabolites and the volume of the individual participants void and averaged across participants. […] Urine and faecal recovery amounts are presented as mean ± SEM (n = 8), unless otherwise stated.

[2] = Serum pharmacokinetics after 500 mg oral bolus of 13C5-C3G (HPLC-ESI-MS/MS, non-compartmental analysis); format: in vivo, humans; details: for Cmax: healthy men, mean ± SEM of participants in whom detected; for AUC(0-t) / AUC0-48: trapezoidal rule; for AUC(0-t): read-out: AUC0-48
Protocol: (§1) A detailed description of the clinical design was previously published ([Czank et al., 2013]). Briefly, a single 500 mg oral bolus dose of isotopically labelled C3G (^13C5-C3G) was fed to eight healthy male participants (body mass index, 18.5–30.5 kg·m^–2; aged 18–45 years) after an overnight fast (>8 h). Participants provided blood (baseline, 0.5, 1, 2, 4, 6, 24, 48 h), urine (individual voids between 0 and 6 h, total voids between 6–24 and 24–48 h), breath (baseline, 0.5, 1, 2, 4, 6, 24, 48 h) and faecal samples (all voids between 0–6, 6–24 and 24–48 h). The study was conducted at the Clinical Research and Trials Unit at the University of East Anglia according to the principles expressed in the Declaration of Helsinki and was approved by the Cambridgeshire 3 Research Ethics Committee (REC ref: 10/H0306/42) and registered at clinicaltrials.gov as NCT01106729.
(§2) Serum, urine and faecal samples were extracted by SPE and analysed by HPLC-ESI-MS/MS as recently described ([Czank et al., 2013]). The extraction efficiency was established as 87 ± 11% (coefficient of variation, CV; 6.8 ± 0.7%) for serum, 88 ± 18% (CV, 7.9 ± 0.8%) for urine and 81 ± 21% (CV, 14.1 ± 1.2%) for faeces (n = 3 replicates for each analyte). Sample extracts (5 μL) were injected onto a Kinetex PFP column (Phenomonex) and separated using an Agilent 1200 series HPLC with a QTrap 4000 linear ion trap mass spectrometer (ABSciex, Warrington, UK). […] Metabolite identification was performed by multiple reaction monitoring (MRM) optimized for the detection of pure standards with m/z of the parent and daughter fragments adjusted to +2,+3,+5 amu to allow identification of the ^13C-labelled metabolites derived from the B-ring, A-ring or the parent structure respectively. Metabolites were confirmed on the basis of retention time (using authentic and synthesized standards where possible) and three or more ion transitions. The HPLC-ESI-MS/MS method was validated for linearity and precision across all metabolites. Six point standard curves ranging from 1.25 to 20 μM were constructed from analytical standards and injected six times. The precision was established as 1.4–11.0% and linearity of the standard curves was established as r^2 = 0.991–1.000 (CV, 0.2%) across the identified metabolites.
(§3) Pharmacokinetic modelling of metabolites in the serum was performed with the PKSolver ‘add-on’ for Excel 2010 (Microsoft, […], USA) ([Zhang et al., 2010]) using non-compartmental analysis with the AUC calculated using the trapezoidal rule. Pharmacokinetic parameters were established for each individual analyte and presented as mean ± SEM. Urine samples collected during the first 6 h post-bolus were grouped together to the nearest hour time point (i.e. samples were not pooled but individual concentrations were averaged post-quantification) for graphical representation and to calculate total cumulative recovery. The concentration of metabolites was converted to amount recovered from urine by accounting for the molecular weight of the individual ^13C-labelled metabolites and the volume of the individual participants void and averaged across participants. Recovery of metabolites in the faeces was established from the molecular weight of the ^13C-labelled metabolite and the weight of the individual participants void adjusting for faecal water content as previously described ([Czank et al., 2013]). Urine and faecal recovery amounts are presented as mean ± SEM (n = 8), unless otherwise stated.

[3] = parameters: method as in Czank et al., 2013; details: ref Czank et al., 2013, cited from earlier work
[4] = Urinary elimination/recovery after 500 mg oral bolus of 13C5-C3G; format: in vivo, humans; details: urine, single 500 mg oral 13C5-C3G; for Tmax: male, human, po, 500 mg, urine collection interval, read-out: Time at maximum concentration; for Total recovery: 0-48 h; for Total recovery / Maximum concentration: mean ± SEM
Protocol: as §1, §2, §3

[5] = tested on: vascular cell adhesion molecule-1 (VCAM-1); parameters: method as in Wang et al., 2010; details: TNF-α-induced mouse aortic endothelial cells; ref Wang et al., 2010; cited from earlier work
plasma VCAM-1 = tested on: plasma VCAM-1; parameters: method as in Wang et al., 2010; details: mice fed PCA; ref Wang et al., 2010; cited from earlier work
[6] = tested on: LPS-induced RAW 264.7 cells; parameters: method as in Min et al., 2010; details: ref Min et al., 2010; cited from earlier work
plasma IL-6 = tested on: plasma IL-6; parameters: method as in Kim et al., 2010; details: vanillic acid fed mice; ref Kim et al., 2010; cited from earlier work
[7] = male, human, serum, po, 500 mg, serum elimination half-life, single 500 mg oral 13C5-C3G, mean ± SEM
[8] = male, human, serum, po, 500 mg, serum, single 500 mg oral 13C5-C3G, mean ± SEM, read-out: tmax
[9] = male, human, serum, po, 500 mg, single 500 mg oral 13C5-C3G
[10] = male, human, serum, single 500 mg oral 13C5-C3G, mean ± SEM
[11] = serum, single 500 mg oral 13C5-C3G
[12] = serum, single 500 mg oral 13C5-C3G, mean ± SEM

Compound | Recovery 6–24 h [1] | Recovery 24–48 h [1] | half-life [2, 7] [min] | Tmax [2, 8] [h] | Cmax [2, 9] [nM] | AUC(0-t) [2, 10] [µM·h] | Tmax [4] [h] | Total recovery [4] [µg] | Maximum concentration [4] [nM] | Cmax [2, 11] [nM] | Tmax [2, 12] [h] | AUC0-48 [2, 12] [nmol·h/L] | also measured
OCC1OC(Oc2cc3c(O)cc(O)cc3[o+]c2-c2ccc(O)c(O)c2)C(O)C(O)C1O (stereo not drawn) [Cyanidin-3-glucoside, 6,8,10,3′,5′-^13C5-cyanidin-3-glucoside] | 70.0 ^b μg | 19.6 ^b μg | 24 | 1.8 ± 0.2 | 141 ± 70 | 0.279 ± 0.17 | 1 to 2 | 120.0 ± 54.1 | 334 ± 145 |  |  |  | share of the total metabolites found in the circulation ([2]; serum, 500 mg oral 13C5-C3G): 2%; relative bioavailability ([3]; based on recovery of the 13C-label in urine and breath): 12.4 ± 1.4%; recovered 13C-label in faeces [3]: 32 ± 6%; recovery of the initial dose of 13C within the urine sample [3]: 12%
O=C(O)c1ccc(OC2OC(C(=O)O)C(O)C(O)C2O)c(O)c1 (stereo not drawn) [PCA-4-glucuronide] | 16.1 ± 17.5 µg | 20.4 ± 16.2 ^i μg |  |  |  |  |  | 100.3 ± 30.2 | 233 ± 65 | 68 ± 61 | 3.8 ± 0.8 | 618 ± 489 | t1/2 ([2]; serum elimination half-life, single 500 mg oral 13C5-C3G, mean ± SEM): 19.4 ± 3.1 h
O=Cc1c(O)cc(O)cc1O [Phloroglucinaldehyde] | 2.1 ± 1.3 ^e μg | 111.3 ± 78.7 ^f μg |  | 2.8 ± 1.1 | 582 ± 536 | 7.88 ± 7.77 | 6 to 24 | 66.7 ± 21.3 | 170 ± 42 |  |  |  | 
O=C(O)c1ccc(O)c(O)c1 [Protocatechuic acid (PCA), Protocatechuic acid] | 360.9 ± 278.1 ^c μg | 221.8 ± 134.9 ^d μg | 594 ± 204 | 3.3 ± 0.7 | 147 | 1.38 ± 0.76 | 1 to 2 | 71.6 ± 20.9 | 337 ± 117 | 146 ± 74 |  |  | VCAM-1 protein and mRNA [5]: reduce; Recovery 6–24 h ([1]; listed as PCA): 360.9 µg; plasma VCAM-1 levels (plasma VCAM-1): reduced; production of TNF-α, IL-1β, NO, PGE2 and gene expression of NOS and COX-2 [6]: suppress
COc1cc(C(=O)O)ccc1OC1OC(C(=O)O)C(O)C(O)C1O (stereo not drawn) [VA-4-glucuronide] | 3.3 ^b μg | 9.5 ± 7.9 ^g μg |  |  |  |  |  | 618.4 ± 109.7 | 762 ± 124 | 24 ± 4 | 4.8 ± 0.4 | 74 ± 11 | Recovery 0–6 h ([1]; 0–6 h (only 2 participants provided voids)): 3.6 ^b μg
COc1cc(C(=O)O)ccc1O [Vanillic acid (VA), Vanillic acid] | 54.7 ± 1.6 ^h μg | 49.3 ± 21.4 ^g μg | 384 | 12.5 ± 11.5 | 1840 ± 838 |  | 1 to 2 | 960.4 ± 350.0 | 3412 ± 312 |  |  |  | plasma IL-6 (plasma IL-6): reductions
